Reference: US20040186274A1, “Methylation of histone h4 at arginine 3” (priority 2001, published 2004)

System: H4-Arg 3 methylation in HeLa cells
Experiment: TSA treatment of HeLa cells, methylation state of H4-Arg 3 in isolated core histones
Format: cell-based, human
Details: twelve hours after TSA treatment, hyperacetylated H4
Procedure: To determine whether this inhibition occurs in vivo, HeLa cells were treated with a histone deacetylase inhibitor, Tricostatin A (TSA), to induce hyperacetylation. Twelve hours after TSA treatment, core histones were isolated, and the methylation state of H4-Arg 3 was analyzed. […] Therefore, hyperacetylation on lysine residues correlates with hypomethylation of H4 Arg 3.

`CC(/C=C/C(=O)NO)=C\[C@@H](C)C(=O)c1ccc(N(C)C)cc1` [Tricostatin A] was tested, and the “H4 Arg 3 methylation level” value was “almost undetectable”.
